According to patent US8623832B2, “Peptide compositions that bind TLR-4” (The Board of Regents of the University of Oklahoma, priority 2011, dated 2014):
Where no end group is shown, it is not given here.

Experiments:
[1] = tested on: LPS-induced acute inflammation; experiment: Mouse model of LPS-inflammation (endotoxic shock-like symptoms, TNF-α); assay type: in vivo, Balb/c Mice; conditions: mice; for LPS-induced clinical symptoms (endotoxic shock-like): LPS 0.1 μg/g body weight i.p., SPA4 2.5 μg/g, SP-A 0.5 μg/g; for LPS-induced circulatory TNF-α amounts: LPS 0.1 μg/g body weight, serum, ELISA; for LPS-induced TNF-α levels in lung tissue homogenates: LPS 1 μg/g or 15 μg/g body weight, treated at 1 hour, sacrificed at 5 hours
Method: In Example 5, the efficacy of SPA4 peptide in inhibiting LPS-induced acute inflammation was investigated in a mouse model of LPS-inflammation. Balb/c Mice were challenged with E. coli 0111:B4 highly purified, low protein-derived LPS (0.1 or 1 or 15 μg/g body wt) via an intraperitoneal route, one hour prior to treatment with SPA4 peptide (2.5 μg/g body weight) or full-length purified SP-A (0.5 μg/g body weight) via an intraperitoneal route. The mice were monitored for endotoxic-shock like clinical symptoms (including, but not limited to, ruffled fur, eye exudates, diarrhea, prostration, and lack of reactivity), and these symptoms were scored on the basis of severity from 0 to 3, and average clinical symptom indices were calculated for each animal based on the symptom grades (Metkar et al., 2007). Endotoxic-shock like clinical symptoms were noted (at 5 or 7 hours), and mice were sacrificed at different time-intervals after LPS challenge. Major organs and blood specimens were collected. Secreted amounts of TNF-α cytokine were measured in serum and lung tissue homogenates by ELISA method.

[2] = molecular target: T1, recombinant TLR4-MD2 protein (Homo sapiens, UniProt O00206); experiment: Microwell-based binding to immobilized recombinant TLR4-MD2 protein; conditions: for binding to surface-bound TLR4-MD2 protein: 0.25 μg TLR4-MD2 per well, detected with SP-A-specific antibody
T1 construct: extracellular domain of human TLR4 protein (Glu 24-Lys 631 amino acids); 10x histidine tag (C); signal peptide from human CD33 (N); purchased R&D Systems, MN; host or cells: mouse myeloma cell line NS0
T1 sequence (O00206 24-631): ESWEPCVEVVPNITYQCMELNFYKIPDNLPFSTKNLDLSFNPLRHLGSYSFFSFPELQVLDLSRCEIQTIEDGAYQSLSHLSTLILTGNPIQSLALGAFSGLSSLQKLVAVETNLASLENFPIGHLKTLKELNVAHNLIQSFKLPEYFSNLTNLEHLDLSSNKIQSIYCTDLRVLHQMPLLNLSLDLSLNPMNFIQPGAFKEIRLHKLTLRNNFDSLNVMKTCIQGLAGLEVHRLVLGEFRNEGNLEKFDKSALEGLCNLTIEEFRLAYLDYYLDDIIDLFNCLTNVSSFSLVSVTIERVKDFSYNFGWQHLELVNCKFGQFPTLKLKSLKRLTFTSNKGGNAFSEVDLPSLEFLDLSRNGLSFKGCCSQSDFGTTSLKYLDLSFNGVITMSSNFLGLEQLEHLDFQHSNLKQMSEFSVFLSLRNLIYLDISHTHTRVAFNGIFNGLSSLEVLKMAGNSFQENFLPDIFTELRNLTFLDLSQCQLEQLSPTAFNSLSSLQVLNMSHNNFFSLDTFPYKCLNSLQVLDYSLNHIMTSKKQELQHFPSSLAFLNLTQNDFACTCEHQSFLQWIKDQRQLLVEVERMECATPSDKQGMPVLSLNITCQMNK
T1 sequence (Q9Y6Y9 17-160 partner limits assumed): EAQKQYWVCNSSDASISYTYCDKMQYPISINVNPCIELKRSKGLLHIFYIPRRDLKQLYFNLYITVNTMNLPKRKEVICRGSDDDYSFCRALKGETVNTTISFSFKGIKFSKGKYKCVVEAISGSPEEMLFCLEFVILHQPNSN
Source text: Interaction between purified baboon lung SP-A, SP-A-peptides and TLR4-MD2 proteins using a microwell-based method: The binding between the purified baboon lung SP-A, SP-A-peptides and recombinant TLR4-MD2 and MD2 proteins was studied in vitro using a microwell-based method (Awasthi et al., 2004). The soluble, recombinant TLR4-MD2 protein (R&D Systems, MN) consisted of a mixture of recombinant human-TLR4 and MD2 proteins. The recombinant extracellular domain of human TLR4 protein (Glu 24-Lys 631 amino acids), was joined with a DNA sequence encoding the signal peptide from human CD33 and a 10× histidine tag at the C-terminus (Accession # O00206). For MD2 protein, a DNA sequence encoding the signal peptide from human CD33 was joined with the mature region of human MD-2 (mature region, Glu 17-Asn 160 amino acids) and a 10× histidine tag at the C-terminus (Accession # Q9Y6Y9). The chimeric proteins were expressed in a mouse myeloma cell line, NS0 (R&D Systems, MN). The proteins were obtained from the manufacturer in carrier-free condition and reconstituted in PBS containing 0.1% low-endotoxin BSA (MP Biomedicals, OH). MD2, an adaptor molecule for TLR4, is expressed by immune cells, and is known to bind TLR4 in a non-covalent manner (Jain et al., 2008). Thus, the binding of SP-A to the recombinant MD2 protein (R&D Systems, MN) was also studied.
For the binding assay, microwell ultra-high-protein binding Immunolon 4HBX strips (Thermo Scientific, MA) were coated with soluble recombinant-TLR4-MD2 protein or MD2 protein (R&D Systems, 250 ng per well, diluted in 0.1 M NaHCO3, pH 9.6) overnight at room temperature. The plates were washed three times, and non-specific sites were blocked for 2 h at room temperature using phosphate buffered saline containing 0.1% triton-X 100 and 3% nonfat milk (Buffer A). […] The immune-complex was detected using 3,3′,5,5′-tetramethylbenzidine (TMB) substrate system (Sigma-Aldrich, MO). The reaction was stopped with 2 N H2SO4 and read at 405 and/or 450 nm spectrophotometrically (Molecular Devices, CA).

Substance | LPS-induced clinical symptoms (endotoxic shock-like) [1] | LPS-induced circulatory TNF-α amounts [1] | LPS-induced TNF-α levels in lung tissue homogenates [1] | binding to surface-bound TLR4-MD2 protein [2] | efficiency of binding to TLR4-MD2 protein compared with whole native SP-A protein ([2]; SPA4 2-20 μg versus SP-A 2-10 μg)
GDFRYSDGTPVNYTNWYRGE [SPA4, GDFRYSDGT PVNYTNWYRGE] | inhibit | reduced | reduced | binds to TLR4-MD2 protein | less efficient
SP-A: native surfactant protein-A purified from bronchioalveolar lavage fluid of a normal healthy adult baboon (MWLCPLALTLTLMAASGAACEVKDVCVGSPGIPGTPGSHGLPGRDGRDGVKGDPGPP; listed as Papio cynocephalus) | inhibit | reduced | low | showed binding | 
